Measured values as given in US9494572B2, “Method and compositions for treating cancer and related methods” (Icahn School of Medicine at Mount Sinai, priority 2011, dated 2016).
Like-named read-outs stand apart in the source and are kept apart here.

Assays:
H1650 cell line = experiment: Apoptosis (FACS sub-G1, cleaved PARP and Caspase 3) in H1650; type: cell-based, human
Experimental: (§1) Cells treated with drug or transfected with siRNA were stained with propidium iodide to ascertain DNA content and determine cell cycle distribution within the cell population as previously described. […] Sub-G1 peaks were analyzed on DNA histograms; hypo diploid DNA represented dead cells. This fraction indicated apoptotic as well as necrotic cells. Apoptosis was further validated by Caspase 3 and PARP cleavage through western blotting.
(§2) The role of KLF6 in induction of apoptosis in response to anti-EGFR therapeutics was further tested in cell culture.

KLF6 [1] = experiment: KLF6 mRNA and protein expression in H1650; type: cell-based, human; conditions: 40 μM TFP, 1 h and 48 h
Experimental: (§3) RNA was isolated from cell lines and tumor samples using the RNeasy Mini Kit (Qiagen) as per manufacturer's instructions. For each PCR reaction, 1 μg RNA was reverse transcribed using iScript cDNA synthesis kit (BioRad Laboratories). Each cDNA sample was subjected to sequence-specific partial amplification with specific primers and the SYBR green PCR Master Mix (Applied Biosystems) on an ABI PRISM 7900HT plate-reader instrument. […] The following primers were also used: FOXO1 forward 5′ […]
as §2

FOXO1 [2] = experiment: Nuclear cytoplasmic fractionation of H1650; type: cell-based, human; conditions: 20 μM, 1 h
Experimental: H1650 cells were seeded and grown to 60-70% confluency, and treated with increasing doses of TFP. Cell lysates were extracted using NE-PER Nuclear and Cytoplasmic Extraction Reagents (Thermo Scientific) according to supplier's protocol.
Trifluoperazine Hydrochloride (TFP), a FDA-approved antipsychotic and antiemetic, is an effective nuclear export inhibitor of the FOXO1 transcription factor that increases FOXO1 nuclear localization via calmodulin inhibition upstream of AKT and downstream of PI3K. Kau, T. R., et al. Cancer Cell 4, 463-476 (2003). TFP was used to inhibit nuclear export of FOXO1 and determine if activation of the FOXO1/KLF6 transcriptional network could restore sensitivity to the PTEN-depleted, erlotinib-resistant cell line, H1650. To examine the effect of TFP on nuclear localization of FOXO1 and, subsequently, KLF6 expression, H1650 cells were treated for 1 h with increasing doses of TFP (0, 20 μM, 40 μM) and fractionated into nuclear and cytoplasmic fractions. BRCA1 served as a nuclear marker and GAPDH served as a cytoplasmic marker for the fractionation.

H1650 xenograft tumors = experiment: Tumorgenicity assay, H1650 xenograft; type: in vivo, nude mice; conditions: i.p., erlotinib 25 mg/kg, TFP 10 mg/kg, four treatments
Experimental: H1650 cells (5×10^6) were similarly injected into the right flank of 6 to 8-week old female BALB/c nu/nu mice. Tumor volume was assessed weekly as previously described by Sangodkar, J., et al., supra until volumes reached an average of 200 mm^3. […] A total of four treatments were given with a 48 h rest period.
Tumor growth was measured weekly until average tumor volume for all mice was approximately 200 mm^3. […] Tumor growth in H1650-injected nude mice was measured 24 hours after each drug injection. […] Lysate homogenates from treated and untreated tumors were run and probed in parallel (n=5); statistical significance of densitometry calculations indicated (*P<0.05; **P<0.01; ***P<0.001).

[3] = cited from earlier work
H1650 = experiment: Cell viability, H1650; type: cell-based; conditions: Homo sapiens, NCI-H1650
A549luc = experiment: Cell viability, A549luc; type: cell-based; conditions: Homo sapiens
H3255 = experiment: Cell viability, H3255; type: cell-based; conditions: Homo sapiens, NCI-H3255
FOXO1 [4] = experiment: FOXO1 immunocytochemistry in H1650 cells; conditions: 20 μM, 48 hours, vs untreated
Experimental: Viability of cells line H1650, A549luc and H3255 were determined for cells grown in control medium and medium supplemented with 10 μM, 20 μM and 40 μM chlorpromazine.
H1650 cells were plated on glass coverslips at a density of 150,000 cells in complete RPMI media. […] After incubation with a secondary goat anti-Rabbit IgG (1:1000), (H+L) FITC conjugate (Millipore, P307F), cover slips were mounted with Vectashield DAPI counterstain (H1200) and visualized under fluorescent microscope. A total of 100 cells per condition were counted to determine the distribution of FOXO1 in the cytoplasm vs. the nucleus.

HCC827 cell line = system: HCC827 cell line
Experimental: as §1
(§4) In addition, dysregulated activity of downstream mediators of EGFR signaling, such as PTEN, PI3K and K-Ras or amplification of the MET proto-oncogene can also drive the resistant phenotype.

A549 cell line = experiment: Apoptosis (FACS sub-G1 fraction, cleaved PARP) in A549; type: cell-based, human
Experimental: as §1, §4

H2122 cell line = experiment: Apoptosis (FACS sub-G1 fraction, cleaved PARP) in H2122; type: cell-based, human
Experimental: as §1, §4

H1975 cell line = experiment: Apoptosis (FACS sub-G1 fraction, cleaved PARP) in H1975; type: cell-based; conditions: Homo sapiens, NCI-H1975; H1975 (T790M EGFR); 72 h; read-out: IC50, erlotinib-mediated apoptosis
Experimental: as §1, §4

KLF6 [5] = experiment: KLF6 mRNA and protein expression (qRT-PCR, western) in HCC827; type: cell-based, human
Experimental: as §3

KLF6 [6] = experiment: KLF6 mRNA and protein expression in H2122; type: cell-based, human; conditions: 1 μM 72 h
Experimental: as §3

KLF6 [7] = experiment: KLF6 mRNA and protein expression in A549; type: cell-based, human; conditions: 1 μM 72 h
Experimental: as §3

[8] = system: EGFR^L858R mutant mouse-derived tumors; conditions: in vivo
[9] = system: P-EGFR, P-AKT, P-FOXO1, T-FOXO1; experiment: Western blot of EGFR-AKT-FOXO1 signaling in HCC827; type: cell-based, human
Experimental: EGFR activates two major downstream pathways, the Ras-Raf-MAPK and the PI3K-AKT signaling cascades, resulting in both increased cellular proliferation and survival. […] The role of PI3K-AKT signaling cascade was tested utilizing an antagonist of AKT signaling that acts by inhibiting of the PDK1 and 2 kinases that activate AKT.

FOXO1 and KLF6 = type: cell-based, human
shLuc-HCC827 = experiment: Clonogenic assay, shLuc-HCC827; type: cell-based, human; conditions: control shLuc; 50 nM; 7 days
Experimental: HCC827 shLuc and shKLF6 were plated at a low density in 6-well plates. […] Cells were fixed and then stained with 1% crystal violet staining solution.

ERK and AKT [10] = system: ERK and AKT
Excerpt: (§5) The variable sensitivity of the lung adenocarcinoma cell lines to anti-EGFR-based therapy was used to determine the effects of EGFR inhibition on KLF6 gene transcription.

ERK and AKT [11] = system: ERK and AKT; remark: listed apart in the source
Excerpt: as §5

CN1CCN(CCCN2c3ccccc3Sc3ccc(C(F)(F)F)cc32)CC1 [TFP, 10-[3-(4-methylpiperazin-1-yl)propyl]-2-(trifluoromethyl)-10H-phenothiazine]
Apoptosis (FACS, cleaved PARP, cleaved Caspase 3) (H1650 cell line; 40 μM TFP, 1 h): increased apoptosis
KLF6 mRNA and protein (KLF6 [1]): upregulation of KLF6 mRNA and protein
Nuclear FOXO1 expression (FOXO1 [2]): increased nuclear FOXO1 expression
Tumor growth rate (H1650 xenograft tumors): decreased
average daily clinical dose for CNS effect [3]: 0.3 µmol/kg

CN(C)CCCN1c2ccccc2Sc2ccc(Cl)cc21 [chlorpromazine, 3-(2-chloro-10H-phenothiazin-10-yl)-N,N-dimethyl-propan-1-amine]
Apoptosis (sub-G1 propidium iodide staining) (H1650 cell line; increasing doses of CPZ, 48 hrs): increased amount of apoptosis
IC50 (H1650): 20 µM
IC50 (A549luc): 20 µM
IC50 (H3255): 8 µM
average daily clinical dose for CNS effect [3]: 12 µmol/kg
Nuclear accumulation of FOXO1 (FOXO1 [4]): significant nuclear accumulation of FOXO1

C#Cc1cccc(Nc2ncnc3cc(OCCOC)c(OCCOC)cc23)c1 [erlotinib, [6,7-bis(2-methoxyethoxy)-4-quinazolin-4-yl]-(3-ethynylphenyl) amine]
Apoptosis (sub-G1 propidium iodide staining, cleaved PARP) (HCC827 cell line): significantly increased levels of apoptosis
Cleaved PARP (HCC827 cell line): increased cleaved PARP
Induction of apoptosis (A549 cell line; A549): did not result in a significant induction of apoptosis
IC50 (A549 cell line; Homo sapiens, A549, 72 h, read-out: IC50, erlotinib-mediated apoptosis): > 0.5 µM
Induction of apoptosis (H2122 cell line; H2122): did not result in a significant induction of apoptosis
IC50 (H2122 cell line; Homo sapiens, NCI-H2122, 72 h, read-out: IC50, erlotinib-mediated apoptosis): > 0.5 µM
IC50 (H1975 cell line): > 0.5 µM
Apoptosis (sub-G1 propidium iodide staining, cleaved PARP) (H1650 cell line; 1 μM erlotinib, 48 h): no increase in apoptosis
KLF6 expression (KLF6 [5]): significant upregulated
KLF6 gene expression, endogenous mRNA and protein (KLF6 [5]): Significant upregulation
KLF6 expression, mRNA and protein (KLF6 [6]): still upregulated
KLF6 expression, mRNA and protein (KLF6 [7]): still upregulated
KLF6 expression in tumors [8]: increased KLF6 expression at both the mRNA and protein level
Spontaneous apoptosis, Caspase 3 cleavage in tumors [8]: increased Caspase 3 cleavage
Phosphorylated EGFR, AKT and FOXO1 [9]: reduced phosphorylated forms of EGFR, AKT and FOXO1
Total FOXO1 [9]: increased total amount of FOXO1
Nuclear localization of FOXO1 and KLF6 (FOXO1 and KLF6): increased
Colony formation (shLuc-HCC827): decreased colony formation
Tumor growth rate (H1650 xenograft tumors): increased
Downstream ERK signaling (ERK and AKT [10]): no changes in downstream ERK signaling
Downstream ERK signaling (ERK and AKT [11]): no changes in downstream ERK signaling

OCCN1CCN(CC/C=C2/c3ccccc3Sc3ccc(C(F)(F)F)cc32)CC1 [flupentixol]
average daily clinical dose for CNS effect [3]: 0.01 µmol/kg

OCCN1CCN(CCCN2c3ccccc3Sc3ccc(C(F)(F)F)cc32)CC1 [fluphenazine]
average daily clinical dose for CNS effect [3]: 0.17 µmol/kg

OCCN1CCN(CCCN2c3ccccc3Sc3ccc(Cl)cc32)CC1 [perphenazine]
average daily clinical dose for CNS effect [3]: ~1 µmol/kg

CN(C)CCCN1c2ccccc2Sc2ccccc21 [promazine]
average daily clinical dose for CNS effect [3]: 33 µmol/kg

CSc1ccc2c(c1)N(CCC1CCCCN1C)c1ccccc1S2 (stereo not drawn) [thiordazine]
average daily clinical dose for CNS effect [3]: 13 µmol/kg

CN(C)CCCN1c2ccccc2Sc2ccc(C(F)(F)F)cc21 [triflupromazine]
average daily clinical dose for CNS effect [3]: 6 µmol/kg

OCCN1CCN(CC/C=C2/c3ccccc3Sc3ccc(Cl)cc32)CC1 [zuclopenthixol]
average daily clinical dose for CNS effect [3]: ~0.05 µmol/kg
